From ChEMBL document CHEMBL3856235, “Characterization of 3,3-dimethyl substituted N-aryl piperidines as potent microsomal prostaglandin E synthase-1 inhibitors” (Bioorg Med Chem Lett, 2016)

Tests used:
Prostaglandin E synthase [1] = molecular target: T1, Prostaglandin E synthase (Homo sapiens, UniProt O14684); assay: Inhibition of human mPGES-1 expressed in 293E cells assessed as reduction in conversion of PGH2 to PGE2 after 1.5 min by LC/MS analysis; format: cell-based
T1 sequence (O14684 whole entry): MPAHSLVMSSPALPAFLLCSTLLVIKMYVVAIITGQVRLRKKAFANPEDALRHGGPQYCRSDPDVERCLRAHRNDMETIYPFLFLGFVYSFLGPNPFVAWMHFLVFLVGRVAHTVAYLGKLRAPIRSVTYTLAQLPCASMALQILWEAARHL

Prostaglandin E synthase [2] = molecular target: T1, Prostaglandin E synthase; assay: Inhibition of mPGES-1 in human A549 cells assessed as reduction in recombinant human interleukin-1 beta-induced PGE2 production preincubated for 30 mins measured after 18 hrs by ELISA; format: cell-based
Prostaglandin E synthase [3] = molecular target: T1, Prostaglandin E synthase
Description: Inhibition of mPGES-1 in human whole blood assessed as reduction in LPS-induced PGE2 production preincubated for 30 mins followed by LPS stimulation for 20 to 24 hrs by LC/MS/MS analysis

[4] = Drug metabolism in rat liver microsomes at 4 uM; format: ADME; settings: read-out: Drug metabolism
[5] = Drug metabolism in dog liver microsomes at 4 uM; format: ADME, Canis lupus familiaris; settings: read-out: Drug metabolism
[6] = Drug metabolism in human liver microsomes at 4 uM; format: ADME; settings: read-out: Drug metabolism
CYP2C9 = CYP2C9 (Homo sapiens, UniProt P11712); assay: Inhibition of CYP2C9 in human hepatic microsomes assessed as reduction in probe substrate metabolism at 10 uM; format: ADME; settings: liver microsomes
Sequence of CYP2C9 (P11712 whole entry): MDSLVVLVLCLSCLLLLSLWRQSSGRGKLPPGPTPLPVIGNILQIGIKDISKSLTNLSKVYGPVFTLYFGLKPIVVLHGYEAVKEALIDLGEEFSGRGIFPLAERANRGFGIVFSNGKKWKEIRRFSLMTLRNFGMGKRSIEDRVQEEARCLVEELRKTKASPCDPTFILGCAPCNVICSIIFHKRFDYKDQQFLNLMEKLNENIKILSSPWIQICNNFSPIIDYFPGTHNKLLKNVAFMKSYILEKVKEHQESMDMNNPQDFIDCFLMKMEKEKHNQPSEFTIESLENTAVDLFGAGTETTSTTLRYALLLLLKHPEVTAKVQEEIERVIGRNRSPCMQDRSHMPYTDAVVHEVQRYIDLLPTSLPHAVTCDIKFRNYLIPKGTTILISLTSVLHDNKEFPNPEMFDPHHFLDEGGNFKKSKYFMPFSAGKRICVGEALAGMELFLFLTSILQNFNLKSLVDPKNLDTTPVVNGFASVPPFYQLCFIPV

CYP2D6 = CYP2D6 (Homo sapiens, UniProt P10635); assay: Inhibition of CYP2D6 in human hepatic microsomes assessed as reduction in probe substrate metabolism at 10 uM; format: ADME; settings: liver microsomes
Sequence of CYP2D6 (P10635 whole entry): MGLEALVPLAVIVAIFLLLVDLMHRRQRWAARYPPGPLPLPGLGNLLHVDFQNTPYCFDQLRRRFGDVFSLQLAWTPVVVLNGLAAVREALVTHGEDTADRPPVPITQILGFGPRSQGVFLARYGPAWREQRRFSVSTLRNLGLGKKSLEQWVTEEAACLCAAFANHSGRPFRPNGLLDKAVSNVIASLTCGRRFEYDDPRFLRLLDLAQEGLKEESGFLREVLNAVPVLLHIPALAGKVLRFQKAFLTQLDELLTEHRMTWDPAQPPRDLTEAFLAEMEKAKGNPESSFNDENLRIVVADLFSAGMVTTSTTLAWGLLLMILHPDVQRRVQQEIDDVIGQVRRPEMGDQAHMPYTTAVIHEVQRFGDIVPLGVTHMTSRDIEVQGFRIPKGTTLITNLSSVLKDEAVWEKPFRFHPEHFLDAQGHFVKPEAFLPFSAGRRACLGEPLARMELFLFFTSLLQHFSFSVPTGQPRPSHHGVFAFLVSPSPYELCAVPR

CYP3A4 [7] = molecular target: T2, CYP3A4 (Homo sapiens, UniProt P08684); assay: Inhibition of CYP3A4 in human hepatic microsomes assessed as reduction in probe substrate metabolism at 10 uM; format: ADME; settings: liver microsomes
T2 sequence (P08684 whole entry): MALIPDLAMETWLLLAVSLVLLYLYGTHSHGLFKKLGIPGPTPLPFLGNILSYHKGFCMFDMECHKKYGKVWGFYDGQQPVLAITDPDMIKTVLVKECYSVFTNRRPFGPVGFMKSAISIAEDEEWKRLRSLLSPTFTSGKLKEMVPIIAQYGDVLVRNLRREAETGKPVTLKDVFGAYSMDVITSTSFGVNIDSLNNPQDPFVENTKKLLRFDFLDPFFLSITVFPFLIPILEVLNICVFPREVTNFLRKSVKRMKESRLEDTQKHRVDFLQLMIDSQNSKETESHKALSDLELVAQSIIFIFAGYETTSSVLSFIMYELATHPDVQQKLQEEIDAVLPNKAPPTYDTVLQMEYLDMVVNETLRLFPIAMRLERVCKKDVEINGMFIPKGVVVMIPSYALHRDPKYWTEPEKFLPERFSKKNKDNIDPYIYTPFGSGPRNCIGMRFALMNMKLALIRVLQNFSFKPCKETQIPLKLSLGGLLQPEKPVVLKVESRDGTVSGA

[8] = Clearance in Beagle dog at 1 mg/kg, iv; format: ADME, organism-based, Canis lupus familiaris; settings: in vivo
[9] = Volume of distribution at steady state in Beagle dog at 1 mg/kg, iv; format: ADME, organism-based, Canis lupus familiaris; settings: in vivo, read-out: Vdss
[10] = Oral bioavailability in Beagle dog at 15 mg/kg; format: ADME, organism-based, Canis lupus familiaris; settings: in vivo
[11] = Time at which plasma concentration remains above dog whole blood IC50 level in Beagle dog at 3 mg/kg, po; format: ADME, organism-based, Canis lupus familiaris; settings: in vivo
[12] = Inhibition of rat mPGES-1
Prostaglandin E synthase [13] = molecular target: T3, Prostaglandin E synthase (Canis lupus familiaris, UniProt A0SYQ0); assay: Inhibition of dog mPGES-1
T3 sequence (A0SYQ0 whole entry): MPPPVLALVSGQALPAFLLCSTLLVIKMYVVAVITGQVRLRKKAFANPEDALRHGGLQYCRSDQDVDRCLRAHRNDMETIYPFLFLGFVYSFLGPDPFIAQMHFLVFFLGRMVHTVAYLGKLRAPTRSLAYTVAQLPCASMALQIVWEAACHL

Prostaglandin E synthase [14] = molecular target: T3, Prostaglandin E synthase; assay: Inhibition of mPGES-1 in dog whole blood; format: tissue-based
[15] = Clearance in rat at 1 mg/kg, iv; format: ADME, organism-based; settings: in vivo
[16] = Half life in rat at 1 mg/kg, iv; format: ADME, organism-based; settings: in vivo
[17] = Volume of distribution at steady state in rat at 1 mg/kg, iv; format: ADME, organism-based; settings: in vivo, read-out: Vdss
[18] = Cmax in rat at 5 mg/kg, po; format: ADME, organism-based; set-up: dose 5 mg/kg, route oral; settings: in vivo
[19] = Oral bioavailability in rat at 5 mg/kg; format: ADME, organism-based; settings: in vivo
CYP3A4 [20] = molecular target: T2, CYP3A4; assay: Time dependent inhibition of CYP3A4 in human hepatic microsomes assessed as reduction in probe substrate metabolism at 10 uM; format: ADME; settings: liver microsomes, read-out: TDI
Prostaglandin E synthase [21] = molecular target: T1, Prostaglandin E synthase; assay: Inhibition of mPGES-1 (unknown origin)
[22] = Time at which plasma concentration remains above human whole blood IC50 level in human at 200 mg, po; format: ADME

Work on `Cc1cccc2ccc(N3CC[C@H](C(=O)N[C@H]4CCCOC4)C(C)(C)C3)nc12` yielded an IC50 (Prostaglandin E synthase [1]) of 7 nM, an IC50 (Prostaglandin E synthase [2]) of 72 nM and an IC50 (Prostaglandin E synthase [3]) of 36 nM.

`CC1(C)CN(c2ccc(C(F)(F)F)cc2)CC[C@H]1C(=O)N[C@H]1CCC[C@H](CO)C1` showed an IC50 (Prostaglandin E synthase [1]) of 504 nM and an IC50 (Prostaglandin E synthase [2]) of 4500 nM.

Work on `CC1(C)CN(c2ccc3cccc(Cl)c3n2)CC[C@@H]1C(=O)N[C@H]1CC[C@@H](CO)CC1` yielded an IC50 (Prostaglandin E synthase [1]) of 4 nM, an IC50 (Prostaglandin E synthase [2]) of 30 nM and an IC50 (Prostaglandin E synthase [3]) of 23 nM.

`Cc1cccc2ccc(N3CC[C@H](C(=O)N[C@H]4CCOC4)C(C)(C)C3)nc12` showed an IC50 (Prostaglandin E synthase [1]) of 6 nM, an IC50 (Prostaglandin E synthase [2]) of 23 nM and an IC50 (Prostaglandin E synthase [3]) of 51 nM.

With `Cc1cccc2ccc(N3CC[C@H](C(=O)N[C@H]4CCO[C@H](CO)C4)C(C)(C)C3)nc12` the IC50 (Prostaglandin E synthase [1]) was 2 nM, the IC50 (Prostaglandin E synthase [2]) was 5 nM and the metabolised at 4 µM [4] was 16%. The metabolised at 4 µM [5] was 13%, the metabolised at 4 µM [6] was 20% and the inhibition at 10 µM (CYP2C9) was 15%. The inhibition at 10 µM (CYP2D6) was 0%, the inhibition at 10 µM (CYP3A4 [7]) was 10% and the clearance [8] was 3.62 mL/min/kg. It also gave a Vd [9] of 1.6 L/kg, a bioavailability [10] of 74% and a Time [11] of 24 h. The IC50 [12] was 7870 nM, the IC50 (Prostaglandin E synthase [13]) was 11 nM and the IC50 (Prostaglandin E synthase [14]) was 23 to 28 nM. It also gave a clearance [15] of 14 mL/min/kg, a half-life [16] of 2.3 h and a Vd [17] of 2.3 L/kg. The Cmax [18] was 2050 nM, the bioavailability [19] was 100% and the inhibition at 10 µM (CYP3A4 [20]) was 39%. The IC50 (Prostaglandin E synthase [3]) was 7 nM.

`Cc1cccc2ccc(N3CC[C@H](C(=O)N[C@H]4CC[C@@H](CO)CC4)C(C)(C)C3)nc12` gave an IC50 (Prostaglandin E synthase [1]) of 1 nM, an IC50 (Prostaglandin E synthase [2]) of 2 nM and a metabolised at 4 µM [4] of 64%. The metabolised at 4 µM [5] was 60%, the metabolised at 4 µM [6] was 46% and the inhibition at 10 µM (CYP2C9) was 54%. The inhibition at 10 µM (CYP2D6) was 4%, the inhibition at 10 µM (CYP3A4 [7]) was 35% and the clearance [15] was 21 mL/min/kg. It also gave a half-life [16] of 2.6 h, a Vd [17] of 1.4 L/kg and a Cmax [18] of 1450 nM. For the same compound, the bioavailability [19] was 54%, the inhibition at 10 µM (CYP3A4 [20]) was 75% and the IC50 (Prostaglandin E synthase [3]) was 2 nM.

For `CC1(C)CN(c2ccc(C(F)(F)F)cc2)CC[C@@H]1C(=O)N[C@H]1CCC[C@H](CO)C1`, the IC50 (Prostaglandin E synthase [1]) was 3 nM, the IC50 (Prostaglandin E synthase [2]) was 11 nM and the IC50 (Prostaglandin E synthase [3]) was 5 nM.

For `Cc1cccc2ccc(N3CC[C@H](C(=O)N[C@H](C)C(C)C)C(C)(C)C3)nc12`, the IC50 (Prostaglandin E synthase [1]) was 12 nM, the IC50 (Prostaglandin E synthase [2]) was 89 nM and the IC50 (Prostaglandin E synthase [3]) was 77 nM.

In the case of `CC1(C)CN(c2ccc3cccc(Cl)c3n2)CC[C@H]1C(=O)N[C@H]1CC[C@@H](CO)CC1`, the IC50 (Prostaglandin E synthase [1]) is reported as 3720 nM and the IC50 (Prostaglandin E synthase [2]) is reported as > 10000 nM.

Work on `Cc1cc2nc(N3CCC(C(=O)NC4CCCC4)CC3)n(-c3ccc(F)c(C)c3)c2cc1C` yielded an IC50 (Prostaglandin E synthase [21]) of 25 nM.

Compound `Cc1cccc2ccc(N3CC[C@H](C(=O)N[C@H]4CCC[C@H](CO)C4)C(C)(C)C3)nc12` has an IC50 (Prostaglandin E synthase [1]) of 1 nM, an IC50 (Prostaglandin E synthase [2]) of 3 nM and a metabolised at 4 µM [4] of 73%. For the same compound, the metabolised at 4 µM [5] was 57%, the metabolised at 4 µM [6] was 50% and the inhibition at 10 µM (CYP2C9) was 64%. It also gave an inhibition at 10 µM (CYP2D6) of 0%, an inhibition at 10 µM (CYP3A4 [7]) of 43% and a clearance [15] of 34 mL/min/kg. For the same compound, the half-life [16] was 0.6 h, the Vd [17] was 1.3 L/kg and the Cmax [18] was 1430 nM. The bioavailability [19] was 30%, the inhibition at 10 µM (CYP3A4 [20]) was 82% and the IC50 (Prostaglandin E synthase [3]) was 1 nM.

Work on `Cc1ccc(-c2cc(C(F)(F)F)nn2-c2ccc(S(N)(=O)=O)cc2)cc1` [CELECOXIB] yielded a Time [22] of 8 to 12 h.
